Laboratory results published in patent publication US20260274833A1 (NiKang Therapeutics, Inc., priority 2022, published 2026).
pIC50: −log10 of the molar value.

These compounds were tested against T1, CDK2 (Homo sapiens, UniProt P24941) (assay: Phospho-RB measurement in OVCAR3 cells (HTRF phospho-RB cellular kit)). Settings: inhibition of RB phosphorylation at S807/811 (HTRF, TR-FRET ratio 665/620), 24 h compound treatment, 0.3 to 10,000 nM.
T1 construct: endogenous in cells; host or cells: OVCAR3 cells
Format: cell-based
Protocol: Biological Example 1: Phospho-RB Measurement in OVCAR3 Cells
The ability of compounds of Formula (I) to inhibit CDK2 was determined in OVCAR3 cells by measuring inhibition of phosphorylation of RB protein at S780 and S807/811. Phosphorylation of RB protein at S807/811 were measured using HTRF phospho-RB cellular kits (Cat #64RBS807PEG) from Cisbio.
On Day 1, OVCAR3 cells were seeded into 96-well tissue-culture treated plates at 20,000 cells/well in 200 μL and incubated overnight at 37° C. in CO2 atmosphere. On Day 2, the cells were treated with test compounds at concentrations from 0.3 to 10,000 nM using HP D300 digital dispenser. Twenty-four hours after compound treatment, cell culture media was removed by flicking the plate and tapping the plate against clean paper towel. Immediately 30 μL 1× lysis buffer was supplemented from the kit and the plate was incubated at room temperature on shaker for 30 min. After homogenization by pipetting up and down, 8 μL cell lysate from 96-well cell culture plate was transferred to 384-well small volume white detection plate. 2 μL premixed detection solution was added and the plate was covered with sealer. To prepare the detection solution, d2 conjugated-phospho-RB antibody and Eu-cryptate conjugated phosphor-RB antibody were diluted into detection buffer following manufacturer's instruction.
Detection plates were incubated for 4 h at room temperature and read on ClarioStar (BMG Labtech) in TR-FRET mode ([…]). The TR-FRET ratio (665 nM/620 nM) was plotted against the compound concentration and normalized to DMSO controls. Half maximal inhibition concentration (IC50) values are calculated with a four-parameter logistic fit using GraphPad Prism (version 8; La Jolla, CA).

Compound | pIC50
CC(C)(C)c1nc(-c2cccc(NS(=O)(=O)N3Cc4cccnc4C3)c2F)c(-c2ccnc(NC3CCN(S(C)(=O)=O)CC3)n2)s1 [Example 95, N-(3-(2-(tert-butyl)-5-(2-((1-(methylsulfonyl)piperidin-4-yl)amino)-pyrimidin-4-yl)thiazol-4-yl)-2-fluoro-phenyl)-5,7-dihydro-6H-pyrrolo-[3,4-b]pyridine-6-sulfonamide] | 6.21
CN1CCN(S(=O)(=O)N2CCC(Nc3nccc(-c4sc(C(C)(C)C)nc4-c4cccc(NS(=O)(=O)N5CCNc6ccccc6C5)c4F)n3)CC2)CC1 [Example 138, N-(3-(2-(tert-butyl)-5-(2-((1-((4-methylpiperazin-1-yl)sulfonyl)piperidin-4-yl)amino)pyrimidin-4-yl)thiazol-4-yl)-2~fluorophenyl)-1,2,3,5-tetrahydro-4H-benzo[e][1,4] diazepine-4-sulfonamide] | 6.40
CN(C1CNC1)S(=O)(=O)N1CCC(Nc2nccc(-c3sc(C(C)(C)C)nc3-c3cccc(NS(=O)(=O)N4Cc5ccccc5C4)c3F)n2)CC1 [Example 173, N-(3-(5-(2-((1-(N-(azetidin-3-yl)-N-methylsulfamoyl)piperidin-4-yl)amino)-pyrimidin-4-yl)-2-(tert-butyl)thiazol-4-yl)-2-fluorophenyl) isoindoline-2-sulfonamide] | 6.41
CN(C)C(=O)c1ccc2c(c1)CN(S(=O)(=O)Nc1cccc(-c3nc(C(C)(C)C)sc3-c3ccnc(NC4CCN(S(C)(=O)=O)CC4)n3)c1F)C2 [Example 161, 2-(N-(3-(2-(tert-butyl)-5-(2-((1-(methyl-sulfonyl)piperidin-4-yl)amino)pyrimidin-4~yl)thiazol~4-yl)-2-fluorophenyl)-sulfamoyl)-N,N-dimethyl-isoindoline-5-carboxamide] | 5.74
CN(C)Cc1ccc(Nc2nccc(-c3sc(C(C)(C)C)nc3-c3cccc(NS(=O)(=O)N4CCc5ccc(C#N)cc54)c3F)n2)cc1 [Example 248, N-(3-(2-(tert-butyl)~5-(2-((4-((dimethylamino)-methyl)phenyl)-amino)pyrimidin-4-yl)thiazol-4-yl)-2-fluorophenyl)-6-cyanoindoline-1-sulfonamide] | 6.39
O=S1(=O)CC2(CC(Nc3nccc(-c4sc(C56CC(C5)C6)nc4-c4cccc(NS(=O)(=O)N5Cc6cccc(OC(F)F)c6C5)c4F)n3)C2)C1 [Example 24, N-(3-(2~(bicyclo [1.1.1]pentan-1-yl)-5-(2-((2,2-dioxido-2-thiaspiro[3.3]heptan-6-yl)amino)-pyrimidin-4-yl)thiazol-4-yl)-2-fluorophenyl)-4-(difluoromethoxy)-isoindoline-2-sulfonamide] | 6.99
COc1ccc2c(c1)CN(S(=O)(=O)Nc1cccc(-c3nc(C(C)(C)C)sc3-c3ccnc(NC4CCN(S(=O)(=O)N5CCNCC5)CC4)n3)c1F)C2 [Example 119, N-(3-(2-(tert-butyl)-5-(2-((1-(piperazin-1-ylsulfonyl)piperidin-4-yl)amino)-pyrimidin-4-yl)thiazol-4-yl)-2-fluoro-phenyl)-5-methoxy-isoindoline-2-sulfonamide] | 6.40
CNS(=O)(=O)N1CCC(Nc2nccc(-c3sc(C(C)(C)C)nc3-c3cccc(NS(=O)(=O)N4CCc5ccc(C#N)cc54)c3F)n2)CC1 [Example 183, N-(3-(2-(tert-butyl)-5-(2-((1-(N-methyl-sulfamoyl)piperidin-4-yl)amino)-pyrimidin-4-yl)thiazol-4-yl)-2~fluoro-phenyl)-6-cyano-indoline-1-sulfonamide] | 6.87
CC(C)(C)c1nc(-c2cccc(NS(=O)(=O)N3Cc4ccccc4C3)c2F)c(-c2ccnc(Nc3ccc(N4CCNCC4)cc3)n2)s1 [Example 79, N-(3-(2-(tert-butyl)-5-(2-((4-(piperazin-1-yl)-phenyl)amino)pyrimidin-4-yl)thiazol-4-yl)-2-fluorophenyl)-isoindoline-2-sulfonamide] | 6.66
N#Cc1ccc2c(c1)N(S(=O)(=O)Nc1cccc(-c3nc(C45CC(C4)C5)sc3-c3ccnc(NC4CC5(C4)CS(=O)(=O)C5)n3)c1F)CC2 [Example 9, N-(3-(2-(bicyclo [1.1.1]pentan-1-yl)-5-(2-((2,2-dioxido-2-thiaspiro[3.3]heptan-6-yl)amino)-pyrimidin-4-yl)thiazol-4-yl)-2-fluorophenyl)-6-cyanoindoline-1-sulfonamide] | 6.98
CCN(CC)S(=O)(=O)Nc1cccc(-c2nc(C(C)(C)C)sc2-c2ccnc(NC3CC4(C3)CS(=O)(=O)C4)n2)c1F [Example 191, N-(3-(2-(tert-butyl)-5-(2-((2,2-dioxido-2-thiaspiro[3.3]heptan-6-yl)amino)-pyrimidin-4-yl)thiazol-4-yl)-2-fluoro-phenyl)-diethylamine-sulfonamide] | 5.06
O=S1(=O)CC2(CC(Nc3nccc(-c4sc(N5C6CCC5CN(C5CC(F)(F)C5)C6)nc4-c4cccc(NS(=O)(=O)N5CCc6ccc(C(F)(F)F)cc65)c4F)n3)C2)C1 [Example 293, N-(3-(2-(3-(3,3-difluorocyclobutyl)-3,8-diazabicyclo[3.2.1]octan-8-yl)-5-(2-((2,2-dioxido-2-thiaspiro[3.3]heptan-6-yl)amino)pyrimidin-4-yl)thiazol-4-yl)-2-fluorophenyl)-6-(trifluoromethyl)-indoline-1-sulfonamide] | 6.43
CC(C)(C)c1nc(-c2cccc(NS(=O)(=O)N3CCc4c(CO)cccc43)c2F)c(-c2ccnc(NC3CC4(C3)CS(=O)(=O)C4)n2)s1 [Example 216, N-(3-(2-(tert-butyl)-5-(2-((2,2-dioxido-2-thiaspiro[3.3]heptan-6-yl)amino)-pyrimidin-4-yl)thiazol-4-yl)-2-fluoro-phenyl)-4-(hydroxymethyl) indoline-1-sulfonamide] | 7.18
CC(C)(C)c1nc(-c2cccc(NS(=O)(=O)N3Cc4ccccc4C3)c2F)c(-c2ccnc(NC3CCN(S(C)(=O)=O)CC3)n2)s1 [Example 69] | 7.05
CNc1cccc2c1CN(S(=O)(=O)Nc1cccc(-c3nc(C(C)(C)C)sc3-c3ccnc(NC4CC5(C4)CS(=O)(=O)C5)n3)c1F)C2 [Example 207, N-(3-(2-(tert-butyl)-5-(2-((2,2-dioxido-2-thiaspiro[3.3]heptan-6-yl)amino)-pyrimidin-4-yl)thiazol-4-yl)-2-fluorophenyl)-4-(methylamino)-isoindoline-2-sulfonamide] | 6.70

Continued, values first:

pIC50 | Compound
6.52 | CC(C)(C)c1nc(-c2cccc(NS(=O)(=O)N3Cc4cccc(-c5ccccc5)c4C3)c2F)c(-c2ccnc(NC3CCN(S(C)(=O)=O)CC3)n2)s1 [Example 224, N-(3-(2-(tert-butyl)-5-(2-((1-(methylsulfonyl)-piperidin-4-yl)amino)-pyrimidin-4-yl)thiazol-4-yl)-2-fluoro-phenyl)-4-phenylisoindoline-2-sulfonamide]
5.65 | CC(C)(C)c1nc(-c2cccc(NS(=O)(=O)N3CCC4(CCCC4)C3)c2F)c(-c2ccnc(NC3CCN(S(C)(=O)=O)CC3)n2)s1 [Example 169, N-(3-(2-(tert-butyl)-5-(2-((1-(methylsulfonyl)-piperidin-4-yl)amino)-pyrimidin-4-yl)thiazol-4-yl)-2-fluoro-phenyl)-2-azaspiro [4.4]nonane-2-sulfonamide]
6.48 | CC(C)(C)c1nc(-c2cccc(NS(=O)(=O)N3Cc4ccc(CC#N)cc4C3)c2F)c(-c2ccnc(NC3CC4(C3)CS(=O)(=O)C4)n2)s1 [Example 246, N-(3-(2-(tert-butyl)-5-(2-((2,2-dioxido-2-thiaspiro[3.3]heptan-6-yl)amino)-pyrimidin-4-yl)thiazol-4-yl)-2-fluoro-phenyl)-5-(cyanomethyl)-isoindoline-2-sulfonamide]
6.30 | CC(C)(C)c1nc(-c2cccc(NS(=O)(=O)N3Cc4cccc(Oc5ccccc5)c4C3)c2F)c(-c2ccnc(NC3CC4(C3)CS(=O)(=O)C4)n2)s1 [Example 210, N-(3-(2-(tert-butyl)-5-(2-((2,2-dioxido-2-thiaspiro[3.3]heptan-6-yl)amino)-pyrimidin-4-yl)thiazol-4-yl)-2-fluoro-phenyl)-4-phenoxy-isoindoline-2-sulfonamide]
7.31 | CC1(c2nc(-c3cccc(NS(=O)(=O)N4Cc5cccc(C(F)(F)F)c5C4)c3F)c(-c3ccnc(NC4CC5(C4)CS(=O)(=O)C5)n3)s2)CCOCC1 [Example 3, N-(3-(5-(2-((2,2-dioxido-2-thiaspiro-[3.3]-heptan-6-yl)amino)pyrimidin-4-yl)-2-(4-methyltetrahydro-2H-pyran-4-yl)thiazol-4-yl)-2-fluorophenyl)-4-(trifluoromethyl) isoindoline-2-sulfonamide]
6.52 | CC(C)(C)c1nc(-c2cccc(NS(=O)(=O)N3CCc4cc(C#N)ccc43)c2F)c(-c2ccnc(NC3CCN(S(C)(=O)=O)CC3)n2)s1 [Example 92, N-(3-(2-(tert-butyl)-5-(2-((1-(methylsulfonyl)piperidin-4-yl)amino)-pyrimidin-4-yl)thiazol-4-yl)-2-fluorophenyl)-5-cyanoindoline-1-sulfonamide]
